# Results taken from the NIST ThermoML archive (doi:10.1021/je800497u).
# Numbers after ± are expanded uncertainties.
# Assay: xn = mol fraction of the nth substance listed
# Settings: 101 kPa, Liquid
compound,measurement,setting,value
CCCCCCCCCCCO [1-undecanol] + CCCCCCCCCO,mass density,"293.15 K, x2 = 0",832.5 ± 0.6 kg/m3
same,viscosity,"293.15 K, x2 = 0",17.18 ± 0.3 mPa·s
same,mass density,"293.15 K, x2 = 0.1177",831.4 ± 0.6 kg/m3
same,viscosity,"293.15 K, x2 = 0.1177",16.86 ± 0.3 mPa·s
same,mass density,"293.15 K, x2 = 0.248",830.8 ± 0.6 kg/m3
same,viscosity,"293.15 K, x2 = 0.248",16.21 ± 0.28 mPa·s
same,mass density,"293.15 K, x2 = 0.3116",830.5 ± 0.6 kg/m3
same,viscosity,"293.15 K, x2 = 0.3116",15.57 ± 0.28 mPa·s
same,mass density,"293.15 K, x2 = 0.4007",830.2 ± 0.6 kg/m3
same,viscosity,"293.15 K, x2 = 0.4007",15.49 ± 0.28 mPa·s
same,mass density,"293.15 K, x2 = 0.5017",829.8 ± 0.6 kg/m3
same,viscosity,"293.15 K, x2 = 0.5017",14.66 ± 0.26 mPa·s
same,mass density,"293.15 K, x2 = 0.6004",829.4 ± 0.6 kg/m3
same,viscosity,"293.15 K, x2 = 0.6004",13.83 ± 0.25 mPa·s
same,mass density,"293.15 K, x2 = 0.6921",829 ± 0.7 kg/m3
same,viscosity,"293.15 K, x2 = 0.6921",13.5 ± 0.24 mPa·s
same,mass density,"293.15 K, x2 = 0.7943",828.6 ± 0.7 kg/m3
same,viscosity,"293.15 K, x2 = 0.7943",12.79 ± 0.23 mPa·s
same,mass density,"293.15 K, x2 = 0.8915",828.1 ± 0.7 kg/m3
same,viscosity,"293.15 K, x2 = 0.8915",12.06 ± 0.22 mPa·s
same,mass density,"298.15 K, x2 = 0",829 ± 0.6 kg/m3
same,viscosity,"298.15 K, x2 = 0",14.02 ± 0.25 mPa·s
same,mass density,"298.15 K, x2 = 0.1177",827.9 ± 0.6 kg/m3
same,viscosity,"298.15 K, x2 = 0.1177",13.84 ± 0.25 mPa·s
same,mass density,"298.15 K, x2 = 0.248",827.4 ± 0.6 kg/m3
same,viscosity,"298.15 K, x2 = 0.248",13.3 ± 0.24 mPa·s
same,mass density,"298.15 K, x2 = 0.3116",827.1 ± 0.6 kg/m3
same,viscosity,"298.15 K, x2 = 0.3116",12.72 ± 0.23 mPa·s
same,mass density,"298.15 K, x2 = 0.4007",826.8 ± 0.6 kg/m3
same,viscosity,"298.15 K, x2 = 0.4007",12.68 ± 0.23 mPa·s
same,mass density,"298.15 K, x2 = 0.5017",826.4 ± 0.6 kg/m3
same,viscosity,"298.15 K, x2 = 0.5017",12.03 ± 0.22 mPa·s
same,mass density,"298.15 K, x2 = 0.6004",826 ± 0.7 kg/m3
same,viscosity,"298.15 K, x2 = 0.6004",11.33 ± 0.21 mPa·s
same,mass density,"298.15 K, x2 = 0.6921",825.6 ± 0.7 kg/m3
same,viscosity,"298.15 K, x2 = 0.6921",11.12 ± 0.21 mPa·s
same,mass density,"298.15 K, x2 = 0.7943",825.2 ± 0.7 kg/m3
same,viscosity,"298.15 K, x2 = 0.7943",10.55 ± 0.2 mPa·s
same,mass density,"298.15 K, x2 = 0.8915",824.7 ± 0.7 kg/m3
same,viscosity,"298.15 K, x2 = 0.8915",9.982 ± 0.19 mPa·s
CCCCCCCCCCCO [1-undecanol] + CCCCCCCO,mass density,"293.15 K, x2 = 0",832.5 ± 0.6 kg/m3
same,viscosity,"293.15 K, x2 = 0",17.18 ± 0.6 mPa·s
same,mass density,"293.15 K, x2 = 0.1245",830.7 ± 0.6 kg/m3
same,viscosity,"293.15 K, x2 = 0.1245",16.37 ± 0.57 mPa·s
same,mass density,"293.15 K, x2 = 0.2254",830 ± 0.6 kg/m3
same,viscosity,"293.15 K, x2 = 0.2254",14.96 ± 0.53 mPa·s
same,mass density,"293.15 K, x2 = 0.2988",829.4 ± 0.6 kg/m3
same,viscosity,"293.15 K, x2 = 0.2988",13.79 ± 0.49 mPa·s
same,mass density,"293.15 K, x2 = 0.4142",828.4 ± 0.6 kg/m3
same,viscosity,"293.15 K, x2 = 0.4142",12.93 ± 0.46 mPa·s
same,mass density,"293.15 K, x2 = 0.5086",827.6 ± 0.6 kg/m3
same,viscosity,"293.15 K, x2 = 0.5086",11.83 ± 0.43 mPa·s
same,mass density,"293.15 K, x2 = 0.5895",826.8 ± 0.6 kg/m3
same,viscosity,"293.15 K, x2 = 0.5895",10.82 ± 0.4 mPa·s
same,mass density,"293.15 K, x2 = 0.6993",825.7 ± 0.6 kg/m3
same,viscosity,"293.15 K, x2 = 0.6993",9.924 ± 0.37 mPa·s
same,mass density,"293.15 K, x2 = 0.7866",824.8 ± 0.6 kg/m3
same,viscosity,"293.15 K, x2 = 0.7866",8.997 ± 0.34 mPa·s
same,mass density,"293.15 K, x2 = 0.8888",823.6 ± 0.6 kg/m3
same,viscosity,"293.15 K, x2 = 0.8888",8.005 ± 0.31 mPa·s
same,mass density,"298.15 K, x2 = 0",829 ± 0.6 kg/m3
same,viscosity,"298.15 K, x2 = 0",14.02 ± 0.5 mPa·s
same,mass density,"298.15 K, x2 = 0.1245",827.3 ± 0.6 kg/m3
same,viscosity,"298.15 K, x2 = 0.1245",13.36 ± 0.48 mPa·s
same,mass density,"298.15 K, x2 = 0.2254",826.6 ± 0.6 kg/m3
same,viscosity,"298.15 K, x2 = 0.2254",12.26 ± 0.44 mPa·s
same,mass density,"298.15 K, x2 = 0.2988",826 ± 0.6 kg/m3
same,viscosity,"298.15 K, x2 = 0.2988",11.3 ± 0.41 mPa·s
same,mass density,"298.15 K, x2 = 0.4142",825 ± 0.6 kg/m3
same,viscosity,"298.15 K, x2 = 0.4142",10.66 ± 0.39 mPa·s
same,mass density,"298.15 K, x2 = 0.5086",824.2 ± 0.6 kg/m3
same,viscosity,"298.15 K, x2 = 0.5086",9.79 ± 0.37 mPa·s
same,mass density,"298.15 K, x2 = 0.5895",823.4 ± 0.6 kg/m3
same,viscosity,"298.15 K, x2 = 0.5895",8.971 ± 0.34 mPa·s
same,mass density,"298.15 K, x2 = 0.6993",822.3 ± 0.6 kg/m3
same,viscosity,"298.15 K, x2 = 0.6993",8.253 ± 0.32 mPa·s
same,mass density,"298.15 K, x2 = 0.7866",821.3 ± 0.6 kg/m3
same,viscosity,"298.15 K, x2 = 0.7866",7.511 ± 0.3 mPa·s
same,mass density,"298.15 K, x2 = 0.8888",820.2 ± 0.6 kg/m3
same,viscosity,"298.15 K, x2 = 0.8888",6.711 ± 0.27 mPa·s
CCCCCCCCCCCO [1-undecanol] + CCCCCO,mass density,"293.15 K, x2 = 0",832.5 ± 0.6 kg/m3
same,viscosity,"293.15 K, x2 = 0",17.18 ± 0.3 mPa·s
same,mass density,"293.15 K, x2 = 0.1218",830.3 ± 0.6 kg/m3
same,viscosity,"293.15 K, x2 = 0.1218",15.92 ± 0.28 mPa·s
same,mass density,"293.15 K, x2 = 0.2312",829.1 ± 0.6 kg/m3
same,viscosity,"293.15 K, x2 = 0.2312",13.84 ± 0.25 mPa·s
same,mass density,"293.15 K, x2 = 0.3167",828 ± 0.6 kg/m3
same,viscosity,"293.15 K, x2 = 0.3167",12.28 ± 0.22 mPa·s
same,mass density,"293.15 K, x2 = 0.4002",826.9 ± 0.6 kg/m3
same,viscosity,"293.15 K, x2 = 0.4002",11.17 ± 0.2 mPa·s
same,mass density,"293.15 K, x2 = 0.5076",825.2 ± 0.6 kg/m3
same,viscosity,"293.15 K, x2 = 0.5076",9.516 ± 0.18 mPa·s
same,mass density,"293.15 K, x2 = 0.6003",823.7 ± 0.6 kg/m3
same,viscosity,"293.15 K, x2 = 0.6003",8.205 ± 0.16 mPa·s
same,mass density,"293.15 K, x2 = 0.6977",822 ± 0.6 kg/m3
same,viscosity,"293.15 K, x2 = 0.6977",6.943 ± 0.14 mPa·s
same,mass density,"293.15 K, x2 = 0.7982",819.8 ± 0.6 kg/m3
same,viscosity,"293.15 K, x2 = 0.7982",5.804 ± 0.12 mPa·s
same,mass density,"293.15 K, x2 = 0.8954",817.5 ± 0.6 kg/m3
same,viscosity,"293.15 K, x2 = 0.8954",4.87 ± 0.11 mPa·s
same,mass density,"298.15 K, x2 = 0",829 ± 0.6 kg/m3
same,viscosity,"298.15 K, x2 = 0",14.02 ± 0.25 mPa·s
same,mass density,"298.15 K, x2 = 0.1218",826.9 ± 0.6 kg/m3
same,viscosity,"298.15 K, x2 = 0.1218",13.04 ± 0.23 mPa·s
same,mass density,"298.15 K, x2 = 0.2312",825.7 ± 0.6 kg/m3
same,viscosity,"298.15 K, x2 = 0.2312",11.4 ± 0.21 mPa·s
same,mass density,"298.15 K, x2 = 0.3167",824.6 ± 0.6 kg/m3
same,viscosity,"298.15 K, x2 = 0.3167",10.14 ± 0.19 mPa·s
same,mass density,"298.15 K, x2 = 0.4002",823.5 ± 0.6 kg/m3
same,viscosity,"298.15 K, x2 = 0.4002",9.277 ± 0.18 mPa·s
same,mass density,"298.15 K, x2 = 0.5076",821.8 ± 0.6 kg/m3
same,viscosity,"298.15 K, x2 = 0.5076",7.956 ± 0.15 mPa·s
same,mass density,"298.15 K, x2 = 0.6003",820.3 ± 0.6 kg/m3
same,viscosity,"298.15 K, x2 = 0.6003",6.902 ± 0.14 mPa·s
same,mass density,"298.15 K, x2 = 0.6977",818.5 ± 0.6 kg/m3
same,viscosity,"298.15 K, x2 = 0.6977",5.846 ± 0.12 mPa·s
same,mass density,"298.15 K, x2 = 0.7982",816.3 ± 0.6 kg/m3
same,viscosity,"298.15 K, x2 = 0.7982",4.908 ± 0.11 mPa·s
same,mass density,"298.15 K, x2 = 0.8954",813.9 ± 0.6 kg/m3
same,viscosity,"298.15 K, x2 = 0.8954",4.16 ± 0.091 mPa·s
